{"source": "paper PMC3653934", "about": "“Identification of Adiponectin Receptor Agonist Utilizing a Fluorescence Polarization Based High Throughput Assay” (PLoS ONE, 2013)", "key": {"[1]": {"system": "AMPK phosphorylation (AdipoR1 signaling) in MDA-MB-231 cells", "test": "Western blot of AMPK phosphorylation in MDA-MB-231 cells", "type": "cell-based, human", "details": "MDA-MB-231 cells treated at IC50 concentration for 6 h", "description": "Cells were grown to 80% confluence, harvested and aliquoted into 100 mm dishes in serum free media. Cells were allowed to attach overnight and then the serum free media was removed and then cells were washed in PBS twice. Different doses of compounds were prepared in the normal media and added to different dishes for an additional 6 h. Cells were washed 3 times with ice-cold PBS and cell lysates were prepared by scraping cells into lysis buffer A (RIPA buffer, 2 mM dithiothreitol […], 1×Halt protease inhibitor cocktail (Thermo scientific), and 1×Halt phosphatase inhibitor cocktail (Thermo scientific)). The cells were allowed to swell on ice (5 min), after which the homogenate was centrifuged. The supernatants were transferred to fresh tubes and protein concentrations were determined using the Bio-Rad protein assay (Bio-Rad Laboratories, Inc.) per manufacturer’s instructions. Aliquots of the cell lysates were stored at −80°C.\nEqual amounts of total protein (50 µg) were subjected to electrophoresis (10% tris-HCl, 1.0 mm gels) and transferred to nitrocellulose membranes. Membranes were blocked in TBS containing 0.05% Tween 20 (TBST) and 5% nonfat milk or 5% BSA for 1 hour at room temperature. Appropriately diluted primary antibodies were incubated in TBST/5% nonfat milk or TBST/5% BSA for 2 h at room temperature or overnight at 4 °C. Membranes were washed in TBST three times for 15 min each. Appropriately diluted secondary antibodies were incubated in superblock blocking buffers (Thermo Scientific) for 1 h at room temperature. Membranes were washed in TBST three times for 15 min. Proteins were detected by Amersham™ ECL plus western blotting detection system (GE healthcare). The following antibodies were used: anti-AdipoR1 M18, anti-AdipoR2 C12 (Santa Cruz Biotechnology, Santa Cruz, CA), anti-p-AMPKα(T172), anti-AMPKα, and anti-β-actin (Cell Signaling, Danvers, MA).\nIt is well established that adiponectin activates AMPK and p38 MAPK through AdipoR1 or PPARα through AdipoR2 to mediate its downstream signaling cascades, [9], [12], [14]. […] The levels of phosphorylation of AMPK and phosphorylation of PPARα were examined and the relative expression levels of the phospho-protein to the total expression of protein levels were quantified using ImageJ software (NIH) ( Fig. 3 ).\nFigure 3 Effects of hit compounds on adiponectin receptor signaling pathways. […] A total 50 µg of cell lysate was loaded to each lane. Western blot was performed follow the protocol in materials and methods section."}, "AdipoR1": {"molecular_target": "T1, AdipoR1 (Homo sapiens, UniProt Q96A54)", "T1 construct": "The cDNAs encoding full-length of AdipoR1 or AdipoR2 were then sub-cloned into the mammalian expression vector pBEX and pcDNA3.1–Myc-His(+); His (C); Myc (C); made in house; host or cells: CHO cells", "T1 sequence (Q96A54 1-375)": "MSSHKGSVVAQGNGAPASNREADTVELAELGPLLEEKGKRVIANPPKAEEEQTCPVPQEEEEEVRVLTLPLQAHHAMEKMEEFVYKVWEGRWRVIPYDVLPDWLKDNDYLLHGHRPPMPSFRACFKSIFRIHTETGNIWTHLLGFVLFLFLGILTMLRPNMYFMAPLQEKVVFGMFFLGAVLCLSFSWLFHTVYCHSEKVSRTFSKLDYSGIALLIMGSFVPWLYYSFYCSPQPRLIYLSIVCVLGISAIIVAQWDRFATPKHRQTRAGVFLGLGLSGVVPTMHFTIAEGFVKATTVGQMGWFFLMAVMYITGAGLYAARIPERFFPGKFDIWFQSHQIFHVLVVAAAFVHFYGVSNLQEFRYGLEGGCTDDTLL", "test": "Competitive FP assay, displacement of probe 1 from AdipoR1", "type": "binding", "details": "2 µM receptor, 100 nM probe 1, 30 min, 25°C", "description": "Unlabeled short peptide 3 was titrated against the FITC-labeled peptide and adiponectin receptor mixture. Plates were incubated at room temperature for up to 3 hours or 30 min at different temperatures. FP values were taken and IC50 values were calculated.\nMaster mixtures containing fluorescein-labeled probe 1 and adiponectin receptor (AdipoR1 or AdiopR2, 2 µM and probe 1 at 100 nM) in a reaction volume of 19 µl were prepared and loaded to plates. The library compounds (10 µM –0.078 µM, half dilutions) were prepared separately and transferred into the assay plates. The first and last columns of each plate were used as positive and negative control wells. Wells containing the drug only were used as controls to detect auto-fluorescence of the compounds in the total fluorescence assay. After subtraction of the background signal, data was processed and the IC50 values were determined by non-linear least square fitting using SigmaPlot 11.0.\nGiven that the present study is a screening study, peptide 3 was chosen as the positive control for cost-efficiency purposes.\nTo optimize the FP assay properly, it was necessary to assess the stability of the FP assay. The conditions for the FP assay were established by testing various parameters including incubation temperature, time, TF values, ΔmP values, and DMSO tolerance. […] In summary, the competitive FP binding assay conditions ideal for identifying adiponectin receptor agonists are: i) 2 µM adiponectin receptor, ii) 100 nM probe 1, iii) 5% final DMSO concentration (v/v), and iv) incubation for 30 min at 25°C before reading the plate.\nA pilot screen against the natural product library of 10,000 compounds described above was performed at screening concentrations of 10 µM to 0.078 µM (half serial dilutions) in 5% DMSO (v/v). Controls present in each assay plate consisted of 5% DMSO (negative control) or peptide 3 (positive control).\nWe screened a library of 10,000 natural compounds for adiponectin agonists. […] 46 compounds that could generate IC50 curves were identified as initial hits."}, "[2]": {"details": "primary screen, read-out: IC50 vs AdipoR1 (µM) Primary screen"}, "[3]": {"details": "validation, read-out: IC50 vs AdipoR1 (µM) Validated"}}, "note": "Like-named read-outs stand apart in the source and are kept apart here."}
{"smiles": "COc1cc(C[C@H]2COC(=O)[C@@H]2Cc2ccc(O)c(OC)c2)ccc1O", "note": "[Compound 3, Matairesinol]", "values": [{"measurement": "Effect on AMPK phosphorylation", "setting": "[1]", "result": "elevated"}, {"measurement": "IC50", "setting": "AdipoR1; [2]", "result": 0.9, "unit": "µM"}, {"measurement": "IC50", "setting": "AdipoR1; [3]", "result": "0.8 ± 0.2", "unit": "µM"}]}
{"smiles": "C=C1C(=O)O[C@H]2[C@H]1CC/C(C)=C/CC[C@@]1(C)O[C@@H]21", "note": "[Compound 7, Parthenolide]", "values": [{"measurement": "Effect on AMPK phosphorylation", "setting": "[1]", "result": "no effect"}, {"measurement": "IC50", "setting": "AdipoR1; [2]", "result": "> 5", "unit": "µM"}, {"measurement": "IC50", "setting": "AdipoR1; [3]", "result": "> 5", "unit": "µM"}]}
{"smiles": "COc1cc2c(c(OC)c1OC)-c1c(cc(OC)c(OC)c1OC)C[C@H](C)[C@H](C)C2", "note": "[Compound 4, Deoxyschizandrin]", "values": [{"measurement": "Effect on AMPK phosphorylation", "setting": "[1]", "result": "decreased"}, {"measurement": "IC50", "setting": "AdipoR1; [2]", "result": "> 5", "unit": "µM"}, {"measurement": "IC50", "setting": "AdipoR1; [3]", "result": "> 5", "unit": "µM"}]}
{"smiles": "COc1ccc(C[C@H]2COC(=O)[C@@H]2Cc2ccc(O[C@@H]3O[C@H](CO)[C@@H](O)[C@H](O)[C@H]3O)c(OC)c2)cc1OC", "note": "[Compound 1, Arctiin]", "values": [{"measurement": "Effect on AMPK phosphorylation", "setting": "[1]", "result": "elevated"}, {"measurement": "IC50", "setting": "AdipoR1; [2]", "result": 1.2, "unit": "µM"}, {"measurement": "IC50", "setting": "AdipoR1; [3]", "result": "1.3 ± 0.2", "unit": "µM"}]}
{"smiles": "CN(C)Cc1c[nH]c2ccccc12", "note": "[Compound 9, Gramine]", "values": [{"measurement": "Effect on AMPK phosphorylation", "setting": "[1]", "result": "elevated"}, {"measurement": "IC50", "setting": "AdipoR1; [2]", "result": 4.5, "unit": "µM"}, {"measurement": "IC50", "setting": "AdipoR1; [3]", "result": "4.2 ± 0.5", "unit": "µM"}]}
